Experimental data taken from publication PMC5775429, “LY2087101 and dFBr share transmembrane binding sites in the (α4)3(β2)2 Nicotinic Acetylcholine Receptor” (Scientific Reports, 2018).
“And” between values parts separate entries of the source, which are not always exact repeats. Equal entries are not always repeated.

Experiments:
Assay in all cases: Two-electrode voltage-clamp of ACh-induced currents in Xenopus oocytes
Assay type in all cases: cell-based
(α4)2(β2)3 nAChR = target: T1, (α4)2(β2)3 nAChR (Homo sapiens, UniProt P17787+P43681)
T1 construct: expressed in transfected cells; host or cells: Xenopus laevis oocytes injected with cRNA
Experimental: To begin to characterize LY2087101 interaction with the heteropentameric α4β2 nAChRs, we examined the selectivity of LY2087101 for the two α4β2 nAChR isoforms; high-agonist sensitivity (α4)2(β2)3 and low-agonist sensitivity (α4)3(β2)2 nAChRs. Xenopus oocytes were injected with α4 and β2 subunits RNAs at ratios 8:1 and 1:8 to favor expression of (α4)3(β2)2 and (α4)2(β2)3 nAChRs, respectively.
(§1) Ovarian lobules were surgically harvested from oocytes-positive female Xenopus laevis (NASCO, Fort Atkinson, WI) according to an animal use protocol approved by the Texas A&M Health Sciences Center Institutional Animals Care and Use Committee. The Texas A&M Health Sciences Center Research Facility is registered as an animal research facility with the United States Department of Agriculture and is fully accredited by the American Association for Accreditation of Laboratory Animal Care (AAALAC). For oocytes defolliculation, ovarian lobes were treated with 3 mg/ml collagenase type 2 (Worthington Biomedical, Lakewood, NJ) in Ca + 2-free buffer (85 mM NaCl, 2.5 mM KCl, 1 mM MgCl2, 5 mM HEPES, pH 7.6). Collagenase treatment was allowed to proceed for 3 hours at room temperature with gentle shaking then oocytes were washed several times with buffer to remove collagenase then with ND96-gentamicine buffer. Healthy Stage V and VI oocytes were visually selected and maintained at 18 °C in modified ND96-gentamicine buffer (96 mM NaCl, 2 mM KCl, 1.8 mM CaCl2, 1 mM MgCl2, 5 mM HEPES, 50 µg/ml gentamicin, pH 7.6). Oocytes were injected with 50–100 ng of the desired nAChR subunits cRNA mix at ratios of 8α:1β or 1α:8β to express nAChRs with subunit stoichiometries of 3α:2β (low agonist sensitivity) or 2α:3β (high agonist sensitivity), respectively.
(§2) Oocytes were continuously perfused with recording buffer (100 mM NaCl, 2 mM KCl, 1 mM CaCl2, 0.8 mM MgCl2, 1 mM EGTA, 10 mM Hepes, pH 7.5) except during periods of drug applications.

(α4C254S)3(β2)2 nAChR = target: T2, (α4C254S)3(β2)2 nAChR (Homo sapiens, UniProt P17787+P43681, C254S)
T2 construct: expressed in transfected cells; host or cells: Xenopus laevis oocytes injected with cRNA
Experimental: (§3) For amino acid substitutions within the α4 nAChR subunit, point mutations were introduced into pSP64ployA plasmid with cDNA encoding for human α4 nAChR subunit with mutagenic primer pairs using the Quick Change II Site-Directed Mutagenesis Kit (Agilent Technologies) then confirmed by DNA sequencing (GENEWIZ, LLC, South Plainfield, NJ). cRNA transcripts suitable for oocyte expression were prepared in vitro from linearized plasmids [α3 (BamH1), α4 (AseI), β2 (PvuII), β4 (XhoI)] using mMESSAGE mMACHINE high yield capped RNA transcription kits (Ambion) and purified on NucAway Spin column (Invitrogen). cRNA concentration was determined by spectroscopy (Concentration (ug/ul) = Abs260 * 40), aliquoted and stored at −80 °C until used.
as §1, §2

(α4E308V)3(β2)2 nAChR = (α4E308V)3(β2)2 nAChR (Homo sapiens, UniProt P43681, E308V)
Experimental: as §3, §1, §2

(α4F312V)3(β2)2 nAChR = target: T3, (α4F312V)3(β2)2 nAChR (Homo sapiens, UniProt P17787+P43681, F312V)
T3 construct: expressed in transfected cells; host or cells: Xenopus laevis oocytes injected with cRNA
Experimental: as §3, §1, §2

(α4F606Y)3(β2)2 nAChR = target: T4, (α4F606Y)3(β2)2 nAChR (Homo sapiens, UniProt P17787+P43681, F606Y)
T4 construct: expressed in transfected cells; host or cells: Xenopus laevis oocytes injected with cRNA
Experimental: as §3, §1, §2

(α4I608L)3(β2)2 nAChR = target: T5, (α4I608L)3(β2)2 nAChR (Homo sapiens, UniProt P17787+P43681, I608L)
T5 construct: expressed in transfected cells; host or cells: Xenopus laevis oocytes injected with cRNA
Experimental: as §3, §1, §2

(α4L310F)3(β2)2 nAChR = target: T6, (α4L310F)3(β2)2 nAChR (Homo sapiens, UniProt P17787+P43681, L310F)
T6 construct: expressed in transfected cells; host or cells: Xenopus laevis oocytes injected with cRNA
Experimental: as §3, §1, §2

(α4M605I)3(β2)2 nAChR = target: T7, (α4M605I)3(β2)2 nAChR (Homo sapiens, UniProt P17787+P43681, M605I)
T7 construct: expressed in transfected cells; host or cells: Xenopus laevis oocytes injected with cRNA
Experimental: as §3, §1, §2

(α4M605V)3(β2)2 nAChR = target: T8, (α4M605V)3(β2)2 nAChR (Homo sapiens, UniProt P17787+P43681, M605V)
T8 construct: expressed in transfected cells; host or cells: Xenopus laevis oocytes injected with cRNA
Experimental: as §3, §1, §2

(α4S258M)3(β2)2 nAChR = (α4S258M)3(β2)2 nAChR (Homo sapiens, UniProt P43681, S258M)
Experimental: as §3, §1, §2

(α4S284G)3(β2)2 nAChR = target: T9, (α4S284G)3(β2)2 nAChR (Homo sapiens, UniProt P17787+P43681, S284G)
T9 construct: expressed in transfected cells; host or cells: Xenopus laevis oocytes injected with cRNA
Experimental: as §3, §1, §2

(α4T261D)3(β2)2 nAChR = target: T10, (α4T261D)3(β2)2 nAChR (Homo sapiens, UniProt P17787+P43681, T261D)
T10 construct: expressed in transfected cells; host or cells: Xenopus laevis oocytes injected with cRNA
Experimental: as §3, §1, §2

(α4T313C)3(β2)2 nAChR = target: T11, (α4T313C)3(β2)2 nAChR (Homo sapiens, UniProt P17787+P43681, T313C)
T11 construct: expressed in transfected cells; host or cells: Xenopus laevis oocytes injected with cRNA
Experimental: as §3, §1, §2

[1] = ACh concentration-response curve, normalized to 1 mM ACh alone
[2] = 10 µM ACh + 1 µM PAM vs 10 µM ACh alone
[3] = read-out: LY2087101 potentiation EC50
[4] = normalized to 10 µM ACh alone, not from curve fitting, maximum seen at any concentration up to 10 µM LY2087101
[5] = normalized to peak current by 10 µM ACh alone, curve fit

T2 sequence (P43681 29-627 C254S limits assumed): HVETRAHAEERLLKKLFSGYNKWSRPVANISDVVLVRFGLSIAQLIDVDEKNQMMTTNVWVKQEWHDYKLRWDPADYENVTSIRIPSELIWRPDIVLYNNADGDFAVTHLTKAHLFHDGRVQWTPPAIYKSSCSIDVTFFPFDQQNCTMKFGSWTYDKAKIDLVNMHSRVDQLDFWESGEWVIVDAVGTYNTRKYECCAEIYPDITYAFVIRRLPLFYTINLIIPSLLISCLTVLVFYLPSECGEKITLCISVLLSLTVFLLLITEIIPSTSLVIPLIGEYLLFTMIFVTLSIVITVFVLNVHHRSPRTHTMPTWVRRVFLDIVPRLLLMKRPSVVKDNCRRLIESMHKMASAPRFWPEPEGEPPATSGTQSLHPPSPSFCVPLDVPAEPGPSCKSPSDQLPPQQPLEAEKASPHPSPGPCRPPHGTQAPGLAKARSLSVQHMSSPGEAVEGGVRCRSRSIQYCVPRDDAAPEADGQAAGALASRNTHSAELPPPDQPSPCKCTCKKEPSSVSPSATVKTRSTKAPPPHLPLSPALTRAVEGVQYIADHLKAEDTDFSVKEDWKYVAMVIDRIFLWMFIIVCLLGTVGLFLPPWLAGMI
T2 sequence (P17787 26-502): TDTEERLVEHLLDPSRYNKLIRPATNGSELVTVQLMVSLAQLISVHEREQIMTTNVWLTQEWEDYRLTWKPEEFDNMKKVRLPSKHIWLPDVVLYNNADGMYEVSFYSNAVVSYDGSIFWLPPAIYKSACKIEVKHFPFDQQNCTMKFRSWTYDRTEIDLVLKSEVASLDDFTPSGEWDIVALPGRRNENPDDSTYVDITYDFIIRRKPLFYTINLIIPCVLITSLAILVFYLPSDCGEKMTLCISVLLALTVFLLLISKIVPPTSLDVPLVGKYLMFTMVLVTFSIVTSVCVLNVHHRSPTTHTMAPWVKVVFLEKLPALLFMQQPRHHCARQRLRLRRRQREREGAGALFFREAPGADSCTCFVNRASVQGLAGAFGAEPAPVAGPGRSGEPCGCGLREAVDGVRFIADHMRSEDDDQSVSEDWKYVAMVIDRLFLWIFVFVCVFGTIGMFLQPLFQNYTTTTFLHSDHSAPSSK
T4 sequence (P43681 29-627 F606Y limits assumed): as the sequence (P43681 29-627 C254S limits assumed) above, with S226C, F578Y counted along it
T4 sequence (P17787 26-502): as the sequence (P17787 26-502) above
T9 sequence (P43681 29-627 S284G limits assumed): as the sequence (P43681 29-627 C254S limits assumed) above, with S226C, S256G counted along it
T9 sequence (P17787 26-502, stated change not applied): as the sequence (P17787 26-502) above
T5 sequence (P43681 29-627 I608L limits assumed): as the sequence (P43681 29-627 C254S limits assumed) above, with S226C, I580L counted along it
T5 sequence (P17787 26-502): as the sequence (P17787 26-502) above
Chain of (α4E308V)3(β2)2 nAChR (P43681 29-627 E308V limits assumed): as the sequence (P43681 29-627 C254S limits assumed) above, with S226C, E280V counted along it
Chain of (α4E308V)3(β2)2 nAChR (P17787 26-502 partner): as the sequence (P17787 26-502) above
T11 sequence (P43681 29-627 T313C limits assumed): as the sequence (P43681 29-627 C254S limits assumed) above, with S226C, T285C counted along it
T11 sequence (P17787 26-502): as the sequence (P17787 26-502) above
T1 sequence (P43681 29-627 limits assumed): as the sequence (P43681 29-627 C254S limits assumed) above, with S226C counted along it
T1 sequence (P17787 26-502): as the sequence (P17787 26-502) above
Chain of (α4S258M)3(β2)2 nAChR (P43681 29-627 S258M limits assumed): as the sequence (P43681 29-627 C254S limits assumed) above, with S226C, S230M counted along it
Chain of (α4S258M)3(β2)2 nAChR (P17787 26-502 partner): as the sequence (P17787 26-502) above
T8 sequence (P43681 29-627 M605V limits assumed): as the sequence (P43681 29-627 C254S limits assumed) above, with S226C, M577V counted along it
T8 sequence (P17787 26-502): as the sequence (P17787 26-502) above
T10 sequence (P43681 29-627 T261D limits assumed): as the sequence (P43681 29-627 C254S limits assumed) above, with S226C, T233D counted along it
T10 sequence (P17787 26-502): as the sequence (P17787 26-502) above
T7 sequence (P43681 29-627 M605I limits assumed): as the sequence (P43681 29-627 C254S limits assumed) above, with S226C, M577I counted along it
T7 sequence (P17787 26-502): as the sequence (P17787 26-502) above
T3 sequence (P43681 29-627 F312V limits assumed): as the sequence (P43681 29-627 C254S limits assumed) above, with S226C, F284V counted along it
T3 sequence (P17787 26-502): as the sequence (P17787 26-502) above
T6 sequence (P43681 29-627 L310F limits assumed): as the sequence (P43681 29-627 C254S limits assumed) above, with S226C, L282F counted along it
T6 sequence (P17787 26-502): as the sequence (P17787 26-502) above

Cc1nc(Nc2ccc(F)cc2)sc1C(=O)c1ccsc1 [LY2087101, [2-[(4-Fluorophenyl)amino]-4-methyl-5-thiazolyl]-3-thienylmethanone]
ACh Imax in the presence of 1 µM LY2087101 ((α4)2(β2)3 nAChR; [1]): 189 ± 2% and ~190%
EC50 ((α4)2(β2)3 nAChR; co-applied with 10 µM ACh, HS WT, read-out: LY2087101 potentiation EC50): 1900 ± 40 nM
R, potentiation ratio (PR) ((α4C254S)3(β2)2 nAChR; [2]): 8.4 ± 1.5
ACh Imax in the presence of 1 µM LY2087101 ((α4C254S)3(β2)2 nAChR; [1]): 185 ± 04%
EC50 ((α4C254S)3(β2)2 nAChR; [3]): 1700 ± 200 nM
R, potentiation ratio (PR) ((α4E308V)3(β2)2 nAChR; [2]): 1.7 ± 0.2
LY2087101 potentiation Imax% ((α4E308V)3(β2)2 nAChR; [4]): 270 ± 30%
R, potentiation ratio (PR) ((α4F312V)3(β2)2 nAChR; [2]): 2.5 ± 0.2
LY2087101 potentiation Imax% ((α4F312V)3(β2)2 nAChR; [4]): 269 ± 43%
EC50 ((α4F312V)3(β2)2 nAChR; [3]): 100 ± 10 nM
R, potentiation ratio (PR) ((α4F606Y)3(β2)2 nAChR; [2]): 2.3 ± 0.3
ACh Imax in the presence of 1 µM LY2087101 ((α4F606Y)3(β2)2 nAChR; [1]): 144 ± 13% and 144 ± 013%
LY2087101 potentiation Imax% ((α4F606Y)3(β2)2 nAChR; [5]): 195 ± 13%
EC50 ((α4F606Y)3(β2)2 nAChR; [3]): 300 ± 200 nM
R, potentiation ratio (PR) ((α4I608L)3(β2)2 nAChR; [2]): 4.4 ± 0.6
LY2087101 potentiation Imax% ((α4I608L)3(β2)2 nAChR; [5]): 840 ± 31%
EC50 ((α4I608L)3(β2)2 nAChR; [3]): 1200 ± 100 nM
R, potentiation ratio (PR) ((α4L310F)3(β2)2 nAChR; [2]): 9.8 ± 1.0
EC50 ((α4L310F)3(β2)2 nAChR; [3]): 3100 ± 100 nM
R, potentiation ratio (PR) ((α4M605I)3(β2)2 nAChR; [2]): 4.5 ± 0.2
LY2087101 potentiation Imax% ((α4M605I)3(β2)2 nAChR; [5]): 756 ± 27%
EC50 ((α4M605I)3(β2)2 nAChR; [3]): 800 ± 100 nM
R, potentiation ratio (PR) ((α4M605V)3(β2)2 nAChR; [2]): 3.8 ± 1.1
LY2087101 potentiation Imax% ((α4M605V)3(β2)2 nAChR; [5]): 856 ± 3%
EC50 ((α4M605V)3(β2)2 nAChR; [3]): 2700 ± 20 nM
R, potentiation ratio (PR) ((α4S258M)3(β2)2 nAChR; [2]): 1.5 ± 0.2
ACh Imax in the presence of 1 µM LY2087101 ((α4S258M)3(β2)2 nAChR; [1]): 232 ± 10%
LY2087101 potentiation Imax% ((α4S258M)3(β2)2 nAChR; [4]): 254 ± 12%
R, potentiation ratio (PR) ((α4S284G)3(β2)2 nAChR; [2]): 3.8 ± 0.4
LY2087101 potentiation Imax% ((α4S284G)3(β2)2 nAChR; [5]): 537 ± 20%
EC50 ((α4S284G)3(β2)2 nAChR; [3]): 700 ± 100 nM
R, potentiation ratio (PR) ((α4T261D)3(β2)2 nAChR; [2]): 1.6 ± 0.1
ACh Imax in the presence of 1 µM LY2087101 ((α4T261D)3(β2)2 nAChR; [1]): 180 ± 23%
LY2087101 potentiation Imax% ((α4T261D)3(β2)2 nAChR; [5]): 215 ± 29%
EC50 ((α4T261D)3(β2)2 nAChR; [3]): 2400 ± 1600 nM
R, potentiation ratio (PR) ((α4T313C)3(β2)2 nAChR; [2]): 2.1 ± 0.2
LY2087101 potentiation Imax% ((α4T313C)3(β2)2 nAChR; [5]): 196 ± 23%
EC50 ((α4T313C)3(β2)2 nAChR; [3]): 700 ± 100 nM
